# Measurements reported in PubChem BioAssay (NCI).
#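 All cell lines were grown in 96-well plates and treated with compound for 48 hours. GI50 marks 50% less growth. Definition used: TGI = concentration required for complete inhibition of growth.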
# Experiments:
# Test in all cases: inhibition of tumour cell growth, NCI panel, 48 h
# SK-MEL-2 melanoma = system: SK-MEL-2 melanoma
# DU-145 prostate = system: DU-145 prostate
# MCF7 breast = system: MCF7 breast
# IGROV1 ovarian = system: IGROV1 ovarian
# A498 renal = system: A498 renal
# RXF 393 renal = system: RXF 393 renal
# SK-MEL-5 melanoma = system: SK-MEL-5 melanoma
# BT-549 breast = system: BT-549 breast
# RPMI-8226 leukemia = system: RPMI-8226 leukemia
# SF-539 CNS = system: SF-539 CNS
# MOLT-4 leukemia = system: MOLT-4 leukemia
# HS 578T breast = system: HS 578T breast
# PC-3 prostate = system: PC-3 prostate
# CAKI-1 renal = system: CAKI-1 renal
# SR leukemia = system: SR leukemia
# NCI-H226 lung = system: NCI-H226 lung
# HOP-92 NSCLC = system: HOP-92 NSCLC
# CCRF-CEM leukemia = system: CCRF-CEM leukemia
# OVCAR-4 ovarian = system: OVCAR-4 ovarian
# NCI-H460 lung = system: NCI-H460 lung
# NCI-H23 lung = system: NCI-H23 lung
# 786-0 renal = system: 786-0 renal
# ACHN renal = system: ACHN renal
# MDA-MB-435 = system: MDA-MB-435
# COLO 205 colon = system: COLO 205 colon
# OVCAR-5 ovarian = system: OVCAR-5 ovarian
# HCT-15 colon = system: HCT-15 colon
# TK-10 renal = system: TK-10 renal
# HOP-62 NSCLC = system: HOP-62 NSCLC
# M14 melanoma = system: M14 melanoma
# HCT-116 colon = system: HCT-116 colon
# OVCAR-8 ovarian = system: OVCAR-8 ovarian
# NCI-H522 lung = system: NCI-H522 lung
# SNB-75 CNS = system: SNB-75 CNS
# U251 CNS = system: U251 CNS
# HL-60(TB) leukemia = system: HL-60(TB) leukemia
# SK-OV-3 ovarian = system: SK-OV-3 ovarian
# T-47D breast = system: T-47D breast
# UACC-62 melanoma = system: UACC-62 melanoma
# HT29 colon = system: HT29 colon
# SW-620 colon = system: SW-620 colon
# HCC-2998 colon = system: HCC-2998 colon
# SN12C renal = system: SN12C renal
# LOX IMVI melanoma = system: LOX IMVI melanoma
# SF-268 CNS = system: SF-268 CNS
# KM12 colon = system: KM12 colon
# UACC-257 melanoma = system: UACC-257 melanoma
# K-562 leukemia = system: K-562 leukemia
# UO-31 renal = system: UO-31 renal
# A549 NSCLC = system: A549 NSCLC
# SK-MEL-28 melanoma = system: SK-MEL-28 melanoma
# NCI/ADR-RES ovarian = system: NCI/ADR-RES ovarian
# MDA-MB-231 breast = system: MDA-MB-231 breast
# OVCAR-3 ovarian = system: OVCAR-3 ovarian
# SF-295 CNS = system: SF-295 CNS
# MALME-3M melanoma = system: MALME-3M melanoma
# SNB-19 CNS = system: SNB-19 CNS
# EKVX NSCLC = system: EKVX NSCLC
compound,measurement,setting,value
O=c1[nH]cnc2c1nnn2[C@@H]1O[C@H](CO)[C@@H](O)[C@H]1O,GI50,SK-MEL-2 melanoma,5.4 µM
same,TGI,SK-MEL-2 melanoma,70 µM
same,GI50,DU-145 prostate,1.72 µM
same,TGI,DU-145 prostate,> 100 µM
same,GI50,MCF7 breast,3.29 µM
same,TGI,MCF7 breast,> 100 µM
same,GI50,IGROV1 ovarian,2.57 µM
same,TGI,IGROV1 ovarian,58.1 µM
same,GI50,A498 renal,2.51 µM
same,TGI,A498 renal,57.4 µM
same,GI50,RXF 393 renal,4.31 µM
same,TGI,RXF 393 renal,> 100 µM
same,GI50,SK-MEL-5 melanoma,13.1 µM
same,TGI,SK-MEL-5 melanoma,> 100 µM
same,GI50,BT-549 breast,9.81 µM
same,TGI,BT-549 breast,> 100 µM
same,GI50,RPMI-8226 leukemia,2.68 µM
same,TGI,RPMI-8226 leukemia,25 µM
same,GI50,SF-539 CNS,7.66 µM
same,TGI,SF-539 CNS,> 100 µM
same,GI50,MOLT-4 leukemia,1.96 µM
same,TGI,MOLT-4 leukemia,22.9 µM
same,GI50,HS 578T breast,17.6 µM
same,TGI,HS 578T breast,> 100 µM
same,GI50,PC-3 prostate,2.77 µM
same,TGI,PC-3 prostate,> 100 µM
same,GI50,CAKI-1 renal,1.04 µM
same,TGI,CAKI-1 renal,> 100 µM
same,GI50,SR leukemia,4.77 µM
same,TGI,SR leukemia,> 100 µM
same,GI50,NCI-H226 lung,30.1 µM
same,TGI,NCI-H226 lung,> 100 µM
same,GI50,HOP-92 NSCLC,2.33 µM
same,TGI,HOP-92 NSCLC,> 100 µM
same,GI50,CCRF-CEM leukemia,1.34 µM
same,TGI,CCRF-CEM leukemia,> 100 µM
same,GI50,OVCAR-4 ovarian,1.89 µM
same,TGI,OVCAR-4 ovarian,> 100 µM
same,GI50,NCI-H460 lung,2.51 µM
same,TGI,NCI-H460 lung,> 100 µM
same,GI50,NCI-H23 lung,6.65 µM
same,TGI,NCI-H23 lung,> 100 µM
same,GI50,786-0 renal,3.83 µM
same,TGI,786-0 renal,> 100 µM
same,GI50,ACHN renal,2.87 µM
same,TGI,ACHN renal,> 100 µM
same,GI50,MDA-MB-435,6.26 µM
same,TGI,MDA-MB-435,> 100 µM
same,GI50,COLO 205 colon,3.16 µM
same,TGI,COLO 205 colon,20.6 µM
same,GI50,OVCAR-5 ovarian,19.3 µM
same,TGI,OVCAR-5 ovarian,> 100 µM
same,GI50,HCT-15 colon,2.8 µM
same,TGI,HCT-15 colon,> 100 µM
same,GI50,TK-10 renal,9.1 µM
same,TGI,TK-10 renal,> 100 µM
same,GI50,HOP-62 NSCLC,9.22 µM
same,TGI,HOP-62 NSCLC,> 100 µM
same,GI50,M14 melanoma,3.54 µM
same,TGI,M14 melanoma,41.9 µM
same,GI50,HCT-116 colon,3.93 µM
same,TGI,HCT-116 colon,> 100 µM
same,GI50,OVCAR-8 ovarian,0.843 µM
same,TGI,OVCAR-8 ovarian,> 100 µM
same,GI50,NCI-H522 lung,4.55 µM
same,TGI,NCI-H522 lung,63.4 µM
same,GI50,SNB-75 CNS,3.22 µM
same,TGI,SNB-75 CNS,> 100 µM
same,GI50,U251 CNS,25.8 µM
same,TGI,U251 CNS,> 100 µM
same,GI50,HL-60(TB) leukemia,1.56 µM
same,TGI,HL-60(TB) leukemia,39.5 µM
same,GI50,SK-OV-3 ovarian,0.868 µM
same,TGI,SK-OV-3 ovarian,> 100 µM
same,GI50,T-47D breast,4.53 µM
same,TGI,T-47D breast,> 100 µM
same,GI50,UACC-62 melanoma,5.75 µM
same,TGI,UACC-62 melanoma,84.4 µM
same,GI50,HT29 colon,4.51 µM
same,TGI,HT29 colon,> 100 µM
same,GI50,SW-620 colon,3.01 µM
same,TGI,SW-620 colon,> 100 µM
same,GI50,HCC-2998 colon,4.33 µM
same,TGI,HCC-2998 colon,> 100 µM
same,GI50,SN12C renal,6.4 µM
same,TGI,SN12C renal,> 100 µM
same,GI50,LOX IMVI melanoma,2.14 µM
same,TGI,LOX IMVI melanoma,> 100 µM
same,GI50,SF-268 CNS,28.9 µM
same,TGI,SF-268 CNS,> 100 µM
same,GI50,KM12 colon,7.85 µM
same,TGI,KM12 colon,> 100 µM
same,GI50,UACC-257 melanoma,28.6 µM
same,TGI,UACC-257 melanoma,> 100 µM
same,GI50,K-562 leukemia,3.7 µM
same,TGI,K-562 leukemia,> 100 µM
same,GI50,UO-31 renal,4.46 µM
same,TGI,UO-31 renal,> 100 µM
same,GI50,A549 NSCLC,27.5 µM
same,TGI,A549 NSCLC,> 100 µM
same,GI50,SK-MEL-28 melanoma,31.5 µM
same,TGI,SK-MEL-28 melanoma,> 100 µM
same,GI50,NCI/ADR-RES ovarian,2.27 µM
same,TGI,NCI/ADR-RES ovarian,> 100 µM
same,GI50,MDA-MB-231 breast,7.68 µM
same,TGI,MDA-MB-231 breast,> 100 µM
same,GI50,OVCAR-3 ovarian,3.43 µM
same,TGI,OVCAR-3 ovarian,33.8 µM
CC1=C([Se]CC(OC(=O)[C@@H](CSSC(C)(C)C)NC(=O)C(C)(C)C)C(=O)NCCCCCC(=O)OCc2ccccc2)C(=O)c2ccccc2C1=O (some centres undefined),GI50,SF-295 CNS,0.317 µM
same,TGI,SF-295 CNS,1.95 µM
same,GI50,SK-MEL-2 melanoma,2.26 µM
same,TGI,SK-MEL-2 melanoma,5.06 µM
same,GI50,DU-145 prostate,2.13 µM
same,TGI,DU-145 prostate,4.51 µM
same,GI50,MCF7 breast,3.04 µM
same,TGI,MCF7 breast,9.74 µM
same,GI50,IGROV1 ovarian,1.9 µM
same,TGI,IGROV1 ovarian,3.66 µM
same,GI50,A498 renal,1.63 µM
same,TGI,A498 renal,4.77 µM
same,GI50,SK-MEL-5 melanoma,1.89 µM
same,TGI,SK-MEL-5 melanoma,3.34 µM
same,GI50,BT-549 breast,1.76 µM
same,TGI,BT-549 breast,3.15 µM
same,GI50,RPMI-8226 leukemia,2.33 µM
same,TGI,RPMI-8226 leukemia,6.74 µM
same,GI50,SF-539 CNS,1.9 µM
same,TGI,SF-539 CNS,3.36 µM
same,GI50,MOLT-4 leukemia,3.24 µM
same,TGI,MOLT-4 leukemia,9.52 µM
same,GI50,HS 578T breast,2.18 µM
same,TGI,HS 578T breast,5.56 µM
same,GI50,PC-3 prostate,1.5 µM
same,TGI,PC-3 prostate,3.63 µM
same,GI50,CAKI-1 renal,2.18 µM
same,TGI,CAKI-1 renal,4.52 µM
same,GI50,SR leukemia,3.84 µM
same,TGI,SR leukemia,18.5 µM
same,GI50,NCI-H226 lung,2.36 µM
same,TGI,NCI-H226 lung,4.63 µM
same,GI50,OVCAR-4 ovarian,1.58 µM
same,TGI,OVCAR-4 ovarian,2.97 µM
same,GI50,NCI-H460 lung,0.637 µM
same,TGI,NCI-H460 lung,2.52 µM
same,GI50,NCI-H23 lung,2.4 µM
same,TGI,NCI-H23 lung,7.1 µM
same,GI50,786-0 renal,2.1 µM
same,TGI,786-0 renal,3.66 µM
same,GI50,ACHN renal,2.16 µM
same,TGI,ACHN renal,4.94 µM
same,GI50,MALME-3M melanoma,2.49 µM
same,TGI,MALME-3M melanoma,5.15 µM
same,GI50,MDA-MB-435,2.28 µM
same,TGI,MDA-MB-435,5.55 µM
same,GI50,SNB-19 CNS,1.09 µM
same,TGI,SNB-19 CNS,2.56 µM
same,GI50,COLO 205 colon,1.8 µM
same,TGI,COLO 205 colon,3.47 µM
same,GI50,OVCAR-5 ovarian,2.59 µM
same,TGI,OVCAR-5 ovarian,5.44 µM
same,GI50,HCT-15 colon,3.2 µM
same,TGI,HCT-15 colon,12.9 µM
same,GI50,TK-10 renal,2.42 µM
same,TGI,TK-10 renal,4.43 µM
same,GI50,HOP-62 NSCLC,1.01 µM
same,TGI,HOP-62 NSCLC,3.03 µM
same,GI50,M14 melanoma,2.05 µM
same,TGI,M14 melanoma,4.04 µM
same,GI50,HCT-116 colon,1.53 µM
same,TGI,HCT-116 colon,3.68 µM
same,GI50,OVCAR-8 ovarian,2.01 µM
same,TGI,OVCAR-8 ovarian,3.78 µM
same,GI50,NCI-H522 lung,1.69 µM
same,TGI,NCI-H522 lung,3.21 µM
same,GI50,SNB-75 CNS,1.37 µM
same,TGI,SNB-75 CNS,2.66 µM
same,GI50,U251 CNS,1.25 µM
same,TGI,U251 CNS,2.81 µM
same,GI50,HL-60(TB) leukemia,2.51 µM
same,TGI,HL-60(TB) leukemia,5.98 µM
same,GI50,EKVX NSCLC,2.24 µM
same,TGI,EKVX NSCLC,5.41 µM
same,GI50,SK-OV-3 ovarian,1.56 µM
same,TGI,SK-OV-3 ovarian,2.92 µM
same,GI50,T-47D breast,2.19 µM
same,TGI,T-47D breast,6.39 µM
same,GI50,UACC-62 melanoma,1.96 µM
same,TGI,UACC-62 melanoma,3.99 µM
same,GI50,HT29 colon,2.69 µM
same,TGI,HT29 colon,7.34 µM
same,GI50,SW-620 colon,2.31 µM
same,TGI,SW-620 colon,5.2 µM
same,GI50,HCC-2998 colon,2.2 µM
same,TGI,HCC-2998 colon,4 µM
same,GI50,SN12C renal,2 µM
same,TGI,SN12C renal,3.89 µM
same,GI50,LOX IMVI melanoma,2.59 µM
same,TGI,LOX IMVI melanoma,7.62 µM
same,GI50,SF-268 CNS,1.91 µM
same,TGI,SF-268 CNS,3.51 µM
same,GI50,KM12 colon,1.8 µM
same,TGI,KM12 colon,3.5 µM
same,GI50,UO-31 renal,1.47 µM
same,TGI,UO-31 renal,3.16 µM
same,GI50,A549 NSCLC,2.11 µM
same,TGI,A549 NSCLC,5.42 µM
same,GI50,SK-MEL-28 melanoma,1.92 µM
same,TGI,SK-MEL-28 melanoma,3.53 µM
same,GI50,NCI/ADR-RES ovarian,3.4 µM
same,TGI,NCI/ADR-RES ovarian,11.4 µM
same,GI50,MDA-MB-231 breast,1.92 µM
same,TGI,MDA-MB-231 breast,4.23 µM
same,GI50,OVCAR-3 ovarian,1.87 µM
same,TGI,OVCAR-3 ovarian,3.38 µM
